What was measured:
[1] = test system: N. fowleri ATCC® 30808™ trophozoites; experiment: In vitro amoebicidal activity against N. fowleri trophozoites (alamarBlue), strain ATCC 30808; format: cell-based, Naegleria fowleri; settings: for IC50 / N. fowleri ATCC 30808 IC50: mean ± SD; for N. fowleri ATCC 30808 SI (CC50/IC50): selectivity index vs murine macrophages J774
Procedure: (§1) The in vitro activity of the tested compounds against Naegleria fowleri trophozoites was evaluated using two clinical strains obtained from the American Type Culture Collection (ATCC® 30808™ and ATCC® 30215™). Trophozoites were cultured axenically at 37 °C in 2% (w/v) Bactocasitone medium (Thermo Fisher Scientific, Madrid, Spain), supplemented with 10% (v/v) fetal bovine serum (FBS), […] penicillin G sodium salt, and 0.5 mg/mL streptomycin sulfate (Sigma-Aldrich, Madrid, Spain). For cytotoxicity assessment, murine macrophages from the J774A.1 cell line (ATCC® TIB-67) were cultured in Dulbecco’s Modified Eagle’s Medium (DMEM) supplemented with 10% (v/v) FBS and 10 μg/mL gentamicin sulfate (Sigma-Aldrich, Madrid, Spain). The macrophages were maintained at 37 °C in a 5% CO2 atmosphere.
(§2) The trophocidal activity of the compounds was evaluated using the alamarBlue® colorimetric assay. N. fowleri trophozoites were seeded in duplicate in a 96-well microtiter plate at a concentration of 2 × 10^5 cells/mL and incubated for adhesion in Bactocasitone medium (2% v/w) (Thermo Fisher Scientific, Madrid, Spain), supplemented with 10% (v/v) fetal bovine serum (FBS), 0.3% penicillin G sodium salt, and 0.5 mg/mL streptomycin sulfate (Sigma-Aldrich, Madrid, Spain). Different concentrations of the evaluated compounds, prepared in fresh Bactocasitone medium, were added to the wells (50 µL per well). The negative control consisted of trophozoites incubated with the medium alone. After adding 10 µL of alamarBlue® reagent, the plates were incubated at 37 °C for 48 h with slight agitation. The data were analyzed using nonlinear regression with GraphPad Prism 9 software to determine the IC50 and IC90 values, which were then used for further studies on PCD [10].

[2] = test system: N. fowleri ATCC® 30215™ trophozoites; experiment: In vitro amoebicidal activity against N. fowleri trophozoites (alamarBlue), strain ATCC 30215; format: cell-based, Naegleria fowleri; settings: trophozoite stage; for IC50: Naegleria fowleri, ATCC30215, 48 h, mean ± SD; for N. fowleri ATCC 30215 SI (CC50/IC50): selectivity index vs murine macrophages J774
Procedure: as §1, §2

[3] = test system: N. fowleri ATCC® 30808™ cyst stage; experiment: In vitro cysticidal activity against N. fowleri cysts (alamarBlue), strain ATCC 30808; format: cell-based, Naegleria fowleri; settings: for IC50: Naegleria fowleri, ATCC30808, mean ± SD
Procedure: (§3) Following the assays against trophozoites, the compounds were further evaluated for their activity against the cyst stage of N. fowleri (ATCC® 30808™ and ATCC® 30215™). To induce cyst formation, the trophozoites were centrifuged, resuspended in MYAS medium, and incubated under slight agitation at room temperature for 10 days. After this, mature cysts were harvested, pretreated with 0.5% SDS, and seeded in a 96-well microtiter plate at 2 × 10^5 cells/mL. The drugs were tested in serial dilutions, and after 24 h of incubation at 37 °C, the medium was replaced with fresh Bactocasitone medium. The colorimetric alamarBlue® assay was used to assess cyst viability, with 10 µL of reagent added to each well. The plates were incubated for an additional 72 h at 37 °C, and fluorescence was measured using the EnSpire® Multimode Plate Reader (PerkinElmer, Madrid, Spain). The results were compared to a negative control (untreated cysts) and a positive control (amphotericin B and miltefosine). The IC50 values were determined through nonlinear regression analysis.

[4] = test system: N. fowleri ATCC® 30215™ cyst stage; experiment: In vitro cysticidal activity against N. fowleri cysts (alamarBlue), strain ATCC 30215; format: cell-based; settings: Naegleria fowleri, ATCC30215, mean ± SD
Procedure: as §3

[5] = In vitro cytotoxicity on murine macrophages (alamarBlue); format: cell-based; settings: mouse, J774A.1 murine macrophage cell line (ATCC TIB-67), mean ± SD
Procedure: as §1
The cytotoxicity of the compounds was assessed against the murine macrophage cell line J774A.1 (ATCC® TIB-67™). Cells were maintained at 37 °C in a 5% CO2 atmosphere in DMEM medium. In the assay, different concentrations of the compounds were added to the cells in a 96-well microtiter plate, and after 24 h of incubation, 10 µL of alamarBlue® reagent was added. The fluorescence intensity was measured using the EnSpire® Multimode Plate Reader (PerkinElmer, Madrid, Spain). The cytotoxic concentration required to reduce cell viability by 50% (CC50) was determined through nonlinear regression analysis using GraphPad Prism 9 software. The results were compared with those obtained against trophozoites to calculate the selectivity index (S.I.) for N. fowleri.

N. fowleri trophozoites [6] = experiment: Intracellular ATP levels (CellTiter-Glo); format: cell-based, Naegleria fowleri; settings: treated with IC90, 24 h; negative control set as 100% ATP
Procedure: (§4) To evaluate the induction of PCD, N. fowleri strains ATCC® 30808™ and ATCC® 30215™ were treated with the IC90 concentration of the compounds 7 and 10 for 24 h at 37 °C. After incubation, specific fluorescent markers were used to assess various detectable metabolic events, following the manufacturers’ instructions for each assay. Amphotericin B was used as a positive control, and untreated amoebae served as a negative control. Fluorescence imaging was performed using EVOS M5000 Cell Imaging System (Life Technologies, Madrid, Spain) and confocal microscope Leica DMI 4000 B equipped with Leica Application Suite X software version 3.5.5.19976 and Leica HC PL APO 63x/1.40 OIL CS2 objective (Leica Microsystems, Wetzlar, Germany). The fluorescence obtained was expressed as mean ± standard deviation from at least three independent experiments.
Adenosine triphosphate (ATP) production was quantified using the CellTiter-Glo® luminescent cell viability assay (Promega, Madrid, Spain). Amoebae were treated with the compounds, and an equal volume of reagent was added per well. Following cell lysis, the emitted luminescence, which is directly proportional to ATP content, was measured using the EnSpire® Multimode Plate Reader (PerkinElmer, Madrid, Spain). […]

N. fowleri trophozoites [7] = experiment: Chromatin condensation (Hoechst 33342 / propidium iodide staining); format: cell-based, Naegleria fowleri; settings: IC90, 24 h; for chromatin condensation (Hoechst 33342 fluorescence): compound 7 on ATCC 30808, compound 10 on ATCC 30215, amphotericin B on both
Procedure: as §4
To evaluate the chromatin condensation, cells were stained with Hoechst 33,342 (1 µM) and propidium iodide (PI) (1 µM) for 20 min in the dark. Hoechst 33,342 binds to condensed chromatin in apoptotic cells and emits blue fluorescence, while PI enters cells with compromised membranes, indicative of late apoptosis or necrosis, and binds to DNA, emitting red fluorescence. […] Untreated cells were included as negative controls to establish baseline fluorescence levels.

N. fowleri trophozoites [8] = experiment: Plasma membrane permeability (SYTOX Green); format: cell-based, Naegleria fowleri; settings: IC90, 24 h; compound 7 on ATCC 30808, compound 10 on ATCC 30215, amphotericin B on both
Procedure: as §4
After treatment, SYTOX™ Green nucleic acid stain (Life Technologies, Madrid, Spain) was added to each well at a final concentration of 1 μg/mL and incubated for 15 min in the dark. […] In contrast, viable cells with intact membranes exclude the dye and remain non-fluorescent. Untreated trophozoites were used as negative controls.

N. fowleri trophozoites [9] = experiment: Mitochondrial membrane potential (JC-1); format: cell-based, Naegleria fowleri; settings: IC90, 24 h; compound 7 on ATCC 30808, compound 10 on ATCC 30215
Procedure: as §4
Mitochondrial membrane potential (ΔΨm) was assessed using the JC-1 dye (1,1′,3,3′-tetraethyl-5,5′,6,6′-tetrachloroimidacarbocyanine iodide; Cayman Chemical, Madrid); following treatment, cells were harvested by centrifugation at 2500 rpm for 10 min and resuspended in JC-1 assay buffer. […] In cells with depolarized mitochondria, JC-1 remains in its monomeric form, emitting green fluorescence (emission at ~535 nm), indicating mitochondrial damage and a loss of ΔΨm.

N. fowleri trophozoites [10] = experiment: Intracellular reactive oxygen species (CellROX Deep Red); format: cell-based, Naegleria fowleri; settings: IC90, 24 h; compound 7 on ATCC 30808 (p < 0.05), compound 10 on ATCC 30215 (p < 0.01)
Procedure: as §4
The oxidative stress induced by the generation of ROS in N. fowleri was evaluated using the CellROX® Deep Red reagent (Invitrogen, Thermo Fisher Scientific, Madrid, Spain). Following incubation, cells were stained with the dye at a final concentration of 5 μM and then incubated for an additional 30 min. The reagent enters cells in response to elevated ROS levels, emitting red fluorescence at approximately 644/665 nm. Increased fluorescence intensity indicated higher levels of ROS accumulation, reflecting elevated oxidative stress in the treated cells.

N. fowleri trophozoites [11] = experiment: Autophagic vacuole formation (monodansylcadaverine); format: cell-based, Naegleria fowleri; settings: IC90, 24 h
Procedure: as §4
Autophagy is a vital cellular process involved in the degradation and recycling of intracellular components, often activated in response to drug exposure. To evaluate autophagic activity, trophozoites were stained with monodansylcadaverine (MDC) (Sigma-Aldrich, St. Louis, MO, USA) during 30 min in the dark. […] The dye emits a characteristic cyan-blue fluorescence, allowing the detection and qualitative analysis of autophagic vacuoles in treated cells.

N. fowleri trophozoites [12] = experiment: Cytoskeletal integrity (phalloidin-TRITC actin staining); format: cell-based, Naegleria fowleri; settings: IC90; compound 7 on ATCC 30808, compound 10 on ATCC 30215
Procedure: as §4
Cytoskeletal disruption in treated amoebae was evaluated by staining with phalloidin conjugated to tetramethylrhodamine B isothiocyanate (phalloidin- TRITC), which binds specifically to filamentous actin, emitting red fluorescence. DAPI staining was used in parallel to visualize nuclear DNA, emitting blue fluorescence. […] Following washing with PBS, fluorescence images were captured with a 63x oil immersion objective.

[13] = Naegleria fowleri, ATCC30808, 48 h, trophozoite stage, 48 h
[14] = Naegleria fowleri, ATCC30808, trophozoites, extracts, fractions, subfractions, isolated compound and reference drugs

SMILES	IC50 [1, 13]	IC90 ([1]; Naegleria fowleri, ATCC30808, trophozoites, compound 7 used on ATCC 30808 (Figure 8 legend))	N. fowleri ATCC 30808 SI (CC50/IC50) ([1]; trophozoite stage)	IC50 [2]	N. fowleri ATCC 30215 SI (CC50/IC50) [2]	IC50 [3]	N. fowleri ATCC 30808 SI (CC50/IC50), cyst stage ([3]; selectivity index vs murine macrophages J774)	IC50 [4]	CC50 at 24 h [5]	inhibition of ATP levels compared to the negative control (N. fowleri trophozoites [6])	propidium iodide (red) fluorescence (N. fowleri trophozoites [7]; compound 7 on ATCC 30808)	chromatin condensation (Hoechst 33342 fluorescence) (N. fowleri trophozoites [7])	plasma membrane integrity (SYTOX Green fluorescence) (N. fowleri trophozoites [8])	mitochondrial membrane potential (JC-1) (N. fowleri trophozoites [9])	intracellular ROS accumulation (CellROX Deep Red) (N. fowleri trophozoites [10])	autophagic vesicles (MDC staining) (N. fowleri trophozoites [11])	actin cytoskeleton (phalloidin-TRITC) (N. fowleri trophozoites [12])	IC50 [1, 14]	N. fowleri ATCC 30808 IC50 ([1]; trophozoites, extracts, fractions, subfractions, isolated compound and reference drugs, listed as A)	N. fowleri ATCC 30808 IC50 ([1]; trophozoites, extracts, fractions, subfractions, isolated compound and reference drugs, listed as UA (1))
COC(=O)[C@]12CC[C@@H](C)[C@H](C)C1C1=CCC3[C@@]4(C)CC[C@H](OC(=O)CCC(=O)O)C(C)(C)C4CC[C@@]3(C)[C@]1(C)CC2 (stereo partly drawn) [Compound 7, 3-O-(Hemisuccinyl)-methyl ursolate]	28.7 ± 1.8 µM	39.5 µM	>6.11	29.7 ± 1.59 µM	>5.90	36.6 ± 1.49 µM	4.78	28 ± 1.59 µM	> 175 µM	89.5%	strong red fluorescence	clear chromatin condensation	significant membrane disruption	marked decrease in mitochondrial membrane potential	significantly increased ROS	autophagosome formation	reduced actin signal intensity	–	–	–
COC(=O)[C@]12CC[C@@H](C)[C@H](C)[C@H]1C1=CC[C@@H]3[C@@]4(C)CC[C@H](O)C(C)(C)[C@@H]4CC[C@@]3(C)[C@]1(C)CC2 [Compound 2, methyl ursolate]	88.7 ± 3.02 µM	–	1.12	84.5 ± 6.31 µM	–	–	–	–	49.6 ± 5.65 µM	–	–	–	–	–	–	–	–	–	–	–
COC(=O)[C@]12CC[C@@H](C)[C@H](C)C1C1=CCC3[C@@]4(C)CC[C@H](OC(=O)CCCC(=O)O)C(C)(C)C4CC[C@@]3(C)[C@]1(C)CC2 (stereo partly drawn) [Compound 8, 3-O-(Hemiglutaryl)-methyl ursolate]	66.6 ± 9.25 µM	–	1.24	38.7 ± 2.15 µM	2.20	–	–	–	85 ± 5 µM	–	–	–	–	–	–	–	–	–	–	–
C[C@@H]1[C@H](O)[C@@H](C)/C=C/C=C/C=C/C=C/C=C/C=C/C=C/[C@H](O[C@@H]2O[C@H](C)[C@@H](O)[C@H](N)[C@@H]2O)C[C@@H]2O[C@](O)(C[C@@H](O)C[C@@H](O)[C@H](O)CC[C@@H](O)C[C@@H](O)CC(=O)O[C@H]1C)C[C@H](O)[C@H]2C(=O)O [Amphotericin B, reference compound]	0.12 ± 0.03 µM	–	>1650.89	0.16 ± 0.01 µM	>1250	0.53 ± 0.03 µM	–	0.62 ± 0.04 µM	> 200 µM	–	–	clear chromatin condensation	bright green fluorescence	–	–	–	–	0.18 µg/mL	0.162 ± 0.002 µg/mL	–
CCCCCCCCCCCCCCCCOP(=O)([O-])OCC[N+](C)(C)C [Miltefosine, reference compound]	38.7 ± 4.23 µM	–	3.30	81.6 ± 7.23 µM	1.57	21.5 ± 2.62 µM	–	37.8 ± 5.6 µM	128 ± 8.85 µM	–	–	–	–	–	–	–	–	12.7 ± 1.49 µg/mL	–	–
C[C@H]1[C@H](C)CC[C@]2(C(=O)O)CC[C@]3(C)C(=CC[C@@H]4[C@@]5(C)CC[C@H](O)C(C)(C)[C@@H]5CC[C@]43C)[C@H]12 [Compound 1, ursolic acid]	142 ± 8.17 µM	–	–	82.5 ± 8.43 µM	0.43	–	–	–	35.9 ± 9.28 µM	–	–	–	–	–	–	–	–	65.9 µg/mL	–	65.91 ± 3.73 µg/mL

Source: paper PMC12470768, “Mentha rotundifolia, a Source of Amoebicidal Agents Against Naegleria fowleri” (International Journal of Molecular Sciences, 2025)
